Assay results as given in US6936569B2, “Compositions and methods for protecting cultivated plants from herbicidal injury” (priority 1998, dated 2005).
Where two headings read alike, the source gives them in different places.

Key:
[1] = test system: giant foxtail, Setaria faberi Herrm. (SETFA); assay: 1998 field trial: weed control, giant foxtail; type: in vivo; details: Table 8: field, 60 DAP
Protocol: (§1) Conventional tillage experiments were conducted in 1998 to evaluate the influence of SMS and AFS-MTMS, on corn tolerance and weed control from postemergence applications of isoxaflutole alone and in tank-mixture with metolachlor/benoxacor. Experiments were conducted at the Michigan State University Crop and Soil Science Research Farm at East Lansing, Mich. on Capac sandy clay loam soil (fine-loamy, mixed mesic Acric Ochraqualfs) containing 3.1% organic matter with a pH of 6.3 in 1998.
(§2) Tillage consisted of moldboard plowing in the fall prior to spring disking and field cultivation. Prior to spring cultivation, 320 kg/ha of 46-0-0 fertilizer was applied broadcast. At planting, 140 kg/ha of 6-24-24 fertilizer was applied as a banded treatment 5 cm below and 5 cm beside the corn seeds. Pioneer 37R71 corn was planted on May 11, 1998 at a rate of 62,000 seeds/ha. Each plot was 10.6 m long and consisted of 4 rows spaced 76 cm apart. […]
(§3) Corn tolerance was evaluated 30 days after planting (DAP) by visually evaluating plants for bleaching and necrotic symptoms and also by measuring corn height (base of plant to the crown) 40 DAP. Weed control by species was visually evaluated 60 DAP. […] Corn grain yield was determined by harvesting the center two rows of each plot with a plot combine. […]

Pioneer 3573 corn = assay: Greenhouse corn tolerance (visual injury, corn height) after postemergence isoxaflutole with or without metolachlor/benoxacor plus test adjuvants (Example 1); type: in vivo, Zea mays; details: 8 DAT
Protocol: Various silicone-based compounds were evaluated for ability to prevent herbicidal injury to the corn when used as repellent adjuvants in herbicide formulations. In previous experiments, it was shown that isoxaflutole in combination with metolachlor and benoxacor applied once corn had emerged caused significant corn injury. The basis of this severe injury is the retention and subsequent absorption of isoxaflutole in the foliar tissue of the corn plant, which is exacerbated by the metolachlor herbicide in the composition. Therefore, to address this problem, a number of silicon-based compounds, which were believed to have repellent properties, were evaluated for the ability to prevent injury to corn plants. The compounds evaluated were an aqueous solution of […] sodium methyl siliconate and 67 weight percent water (“SMS”), an aqueous solution of 35.7 weight percent N-(2-aminoethyl)-3-aminopropyltrimethoxysilane, 58.2 weight percent methyltrimethoxysilane, and 6.1 weight percent water (“AFS-MTMS”), methyltrimethoxysilane (“MTMS”), and phosphonate ester alkyl silicon (“PEAS”). These test adjuvants are commercially available from Dow Corning, Midland, Mich. The test adjuvants were applied in combination with isoxaflutole or isoxaflutole in combination with metolachlor and the safener benoxacor, and the ability of the combination to reduce plant injury by inhibiting retention and subsequent absorption of the herbicide was evaluated.
Pioneer 3573 corn seeds (Pioneer 3573, a product of Pioneer Hi-Bred International, Inc., Des Moines, Iowa) were planted 2.54 cm deep, and velvetleaf and barnyardgrass seeds were planted 1.0 cm deep in 875 ml pots containing BACCTO professional greenhouse potting mix (a product of Michigan Peat Co., Houston, Tex.). The seedlings were grown in a greenhouse maintained at 25° C.±2° C. Natural sunlight was supplemented with light from sodium vapor lamps, which provided a total midday light intensity of 1,000 μmol m^−2 s^−1 photosynthetic photon flux at plant height during a 16 hour photoperiod. Plants were watered daily and fertilized weekly with 50 ml of a water soluble fertilizer solution (400 ppm nitrogen, 400 ppm P2O5, and 400 ppm K2O). […]
The herbicide compositions were applied through an 8003 E flat fan nozzle (available from Spraying Systems Co., Wheaton, Ill.) delivering 234 L/ha at a pressure of 172 kPa (25 gallons/acre). Corn tolerance was evaluated 8 days after treatment (DAT) by visually evaluating the plants for bleaching and necrotic symptoms and also by measuring corn height (base of the plant to its crown). […] Corn height was measured in cm and presented as a percent of the non-treated plants, with 0 indicating total reduction in plant height and 100 indicating height equal to the non-treated plants. […]

[2] = test system: AMARE redroot pigweed, Amaranthus retroflexus L; assay: 1998 field trial: weed control, redroot pigweed; type: in vivo; details: Table 8: field, 60 DAP
Protocol: as §1, §2, §3

common lambsquarters = details: postemergence application, isoxaflutole 105 g/ha; cited from earlier work
velvetleaf = details: postemergence application, isoxaflutole 105 g/ha; cited from earlier work
[3] = test system: CHEAL - common lambsquarter, Chenopodium album L.; assay: 1998 field trial: weed control, common lambsquarters; type: in vivo; details: Table 8: field, 60 DAP
Protocol: as §1
Tillage consisted of moldboard plowing in the fall prior to spring disking and field cultivation. Prior to spring cultivation, 320 kg/ha of 46-0-0 fertilizer was applied broadcast. […]
as §3
Corn (ZEAMX) in the 2-leaf or 4-leaf stage was treated with herbicidal compositions consisting of BALANCE (isoxaflutole); BALANCE and DUAL II (metolachlor and the safener benoxacor); BALANCE and SMS; BALANCE and AFS-MTMS; BALANCE, DUAL II and SMS; or BALANCE, DUAL, and AFS-MTMS. The percent injury was determined 6 DAT, 12 DAT, and 30 DAP. […]

redroot pigweed = details: postemergence application, isoxaflutole 105 g/ha; cited from earlier work
[4] = test system: ZEAMX - corn, Zea mays L.; type: in vivo; details: Table 8: field; for Corn Height: 40 DAP; for Grain Yield: seed weight adjusted to 15% moisture
Protocol: as §1
Tillage consisted of moldboard plowing in the fall prior to spring disking and field cultivation. Prior to spring cultivation, 320 kg/ha of 46-0-0 fertilizer was applied broadcast. At planting, 140 kg/ha of 6-24-24 fertilizer was applied as a banded treatment 5 cm below and 5 cm beside the corn seeds. Pioneer 37R71 corn was planted on May 11, 1998 at a rate of 62,000 seeds/ha. Each plot was 10.6 m long and consisted of 4 rows spaced 76 cm apart.
The tillage experiments were conducted as a randomized complete block design in a factorial arrangement with three replications. The factors consisted of herbicide application timing and herbicide treatment. Herbicides were applied when the corn was at the 2-leaf and 4-leaf stages. Corn leaf stages are described as the number of visible leaves. Herbicide treatments included isoxaflutole alone (BALANCE) at 105 g/ha and in combination with 1.1 kg/ha of metolachlor/benoxacor (DUAL II). Each of these treatments were applied either alone or with either SMS or AFS-MTMS. Each repellent was used at a rate of 0.5% v/v. Additional treatments not included in the factorial arrangement were an untreated check and a weed-free check. All herbicides were applied with a tractor mounted, compressed-air sprayer calibrated to deliver […] at 207 kPa using 8003 E flat-fan nozzles.
Corn tolerance was evaluated 30 days after planting (DAP) by visually evaluating plants for bleaching and necrotic symptoms and also by measuring corn height (base of plant to the crown) 40 DAP. Weed control by species was visually evaluated 60 DAP. Visual evaluations were based on a scale of 0 (no effect) to 100% (complete weed or crop death). Corn grain yield was determined by harvesting the center two rows of each plot with a plot combine. Seed weight was adjusted to 15% moisture.
Data were subjected to analysis of variance and means separated using Fisher's Protected LSD test at α=0.05. Data were combined over years when treatment and/or application timing by year interactions were not significant α=0.05. […] Corn height and yield results were converted to a percent of the weed-free treatment after separation.
Corn (ZEAMX) in the 2-leaf or 4-leaf stage was treated with herbicidal compositions consisting of BALANCE (isoxaflutole); BALANCE and DUAL II (metolachlor and the safener benoxacor); BALANCE and SMS; BALANCE and AFS-MTMS; BALANCE, DUAL II and SMS; or BALANCE, DUAL, and AFS-MTMS. The percent injury was determined 6 DAT, 12 DAT, and 30 DAP. As weed controls, the annual grasses (ANGR) and common lambsquarters, Chenopodium album L. (CHEAL) were treated with herbicidal compositions consisting of BALANCE; BALANCE and DUAL II; BALANCE and SMS; BALANCE and AFS-MTMS; BALANCE, DUAL II and SMS; or BALANCE, DUAL, and AFS-MTMS. The percent injury for the weed controls was determined 30 DAP.

common ragweed = details: postemergence application, isoxaflutole 105 g/ha; cited from earlier work
[5] = test system: ABUTH - velvet-leaf, Abutilon theophrasti Medicus; assay: 1998 field trial: weed control, velvetleaf; type: in vivo; details: Table 8: field, 60 DAP
Protocol: as §1, §2, §3

2-leaf corn = assay: Greenhouse corn tolerance (visual injury, corn height) after isoxaflutole with or without acetochlor/MON-13900 plus adjuvants (Example 3); type: in vivo, Zea mays; details: Table 9: greenhouse, 8 DAT, isoxaflutole 105 g/ha
Protocol: This example was performed as in Example 1, except that adjuvants SMS and AFS-MTMS were added to an isoxaflutole tank-mixture that contained an acetochlor herbicide and the safener MON-13900. As in Example 1, the herbicide applications were made to 2-leaf corn, and the herbicide treatments consisted of isoxaflutole at 105 g/ha and isoxaflutole tank-mixed with 1.8 kg/ha of acetochlor/MON-13900 applied either alone or in combination with either NIS at 0.25% (v/v), SMS at 0.5% (v/v), or AFS-MTMS at 0.5% (v/v).
The herbicide compositions were applied through an 8003 E flat fan nozzle delivering 234 L/ha at a pressure of 172 kPa. Corn tolerance was evaluated 8 DAT by visually evaluating the plants for bleaching and necrotic symptoms and also by measuring corn height (base of the plant to its crown). Visual corn injury ratings were based on a scale from 0 to 100, with 0 indicating no effect and 100 indicating plant death. Corn height was measured in cm and presented as a percent of the non-treated plants, with 0 indicating total reduction in plant height and 100 indicating height equal to the non-treated plants. All experiments were conducted twice as completely randomized designs with four replications. Data were subjected to analysis of variance and means separated using Fisher's Protected LSD test at a+0.05. […]

[6] = Table 3: 2-leaf corn, isoxaflutole 105 g/ha, adjuvant at the rate in the Rate column (0.5% v/v)

CS(=O)(=O)c1cc(C(F)(F)F)ccc1C(=O)c1cnoc1C1CC1 [Isoxaflutole, 5-cyclopropyl isoxazol-4-4-yl-2-mesyl-trifluoromethylphenyl ketone]
Weed Control, SETFA ([1]; 2-leaf application): 73%
Weed Control, SETFA ([1]; 4-leaf application): 70%
Height, Isoxaflutole (Pioneer 3573 corn; [6]): 100 % of control
Injury, Isoxaflutole (Pioneer 3573 corn; [6]): 2%
% injury to corn (Pioneer 3573 corn; greenhouse, 2-leaf corn, adjuvant rate 0%, isoxaflutole 105 g/ha, metolachlor/benoxacor 1.1 kg/ha, scale 0 no effect to 100 plant death): 2%
Corn Height as a Percent of Control (Pioneer 3573 corn; greenhouse, adjuvant rate 0%): 100 % of control height
Weed Control, AMARE ([2]; 2-leaf application): 98%
Weed Control, AMARE ([2]; 4-leaf application): 100%
control of common lambsquarters (common lambsquarters): greater than 90%
control of velvetleaf (velvetleaf): greater than 90%
Weed Control, CHEAL ([3]; 2-leaf application): 95%
Weed Control, CHEAL ([3]; 4-leaf application): 96%
control of redroot pigweed (redroot pigweed): greater than 90%
Corn Injury ([4]; 2-leaf application, 30 DAP (21 days after application), isoxaflutole 105 g/ha, metolachlor 1121 g/ha, adjuvants 0.5% v/v): 0%
Corn Height ([4]; 2-leaf application): 61 cm
Grain Yield ([4]; 2-leaf application): 10420 kg/ha
Corn Injury ([4]; 4-leaf application, 30 DAP (15 days after application)): 10%
Corn Height ([4]; 4-leaf application): 61 cm
Grain Yield ([4]; 4-leaf application): 9995 kg/ha
control of common ragweed (common ragweed): greater than 90%
Weed Control, ABUTH ([5]; 2-leaf application): 99%
Weed Control, ABUTH ([5]; 4-leaf application): 100%
Height, Isoxaflutole (2-leaf corn): 99 % of control
Injury, Isoxaflutole (2-leaf corn; NIS 0.25% v/v, SMS or AFS-MTMS 0.5% v/v): 0%
